{"source": "patent US7547440B2", "about": "“T-cell epitope peptides” (Meiji Dairies Corporation, priority 1996, dated 2009)", "tested_on": "T-cell line stimulated by Cha o 2 from patients with Japanese cypress pollinosis", "assay": "Growth response ([3H]thymidine uptake) of Cha o 2-stimulated T-cell lines to overlapping peptides", "type": "cell-based, human", "conditions": "Cha o 2 overlapping peptides, final concentration 1 μM; T-cell lines from 20 patients; FIG. 5, FIG. 8", "from_the_text": "To obtain the T-cell epitope peptides of the present invention, overlapping peptides that cover the entire primary structures of Cha o 1 and Cha o 2 were synthesized; each peptide consists of the adequate number of amino acid residues (12 to 20 residues). The peptide of the present invention stimulates and/or suppresses the activity of T cells derived from patients with pollinosis caused by tree pollens in springtime. In other words, the peptide of the present invention can induce proliferation of T cells or responses of T cells such as secretion of lymphokines, and/or can induce T-cell anergy (non-responsiveness). T-cell epitope sites on the allergen molecules can be identified using T-cell growth as an index in accordance with the method described in JP-A-Hei 8-47392. In particular, T-cell lines or T-cell clones, which are specifically reactive with Cha o 1 and Cha o 2, are established for every patient from peripheral lymphocytes of a patient with Japanese cypress pollinosis. The T-cell lines or T-cell clones are cultured in the presence of each peptide of the overlapping peptides. The epitope sites are identified by measuring the proliferation of T cells in the presence of the peptide (e.g., uptake of [^3H]thymidine into the cells) and calculating a stimulation index. […] Based on the data obtained thus, a mean stimulation index for each peptide is calculated for each patient group. […]"}
{"substance": "2-14: overlapping peptide of Japanese cypress pollen allergen Cha o 2, 20 residues (ARWKNSKIWLQFAQLTDFNL)", "values": [{"measurement": "T-cell stimulating activity (contains at least one T-cell epitope)", "value": "possess a T-cell stimulating activity"}]}
